The text below walks through data of paper PMC12679645, “Diversifying the triquinazine scaffold of a Janus kinase inhibitor” (RSC Medicinal Chemistry, 2025).

Like-named read-outs stand apart in the source and are kept apart here.

The target in experiment [1] is T1, JAK1 (Homo sapiens, UniProt P23458). Nature of the experiment: biochemical enzymatic kinase assay, % inhibition at […].
The target of experiment [2] is T2, JAK3 (Homo sapiens, UniProt P52333).
T2 sequence (P52333 1-1124): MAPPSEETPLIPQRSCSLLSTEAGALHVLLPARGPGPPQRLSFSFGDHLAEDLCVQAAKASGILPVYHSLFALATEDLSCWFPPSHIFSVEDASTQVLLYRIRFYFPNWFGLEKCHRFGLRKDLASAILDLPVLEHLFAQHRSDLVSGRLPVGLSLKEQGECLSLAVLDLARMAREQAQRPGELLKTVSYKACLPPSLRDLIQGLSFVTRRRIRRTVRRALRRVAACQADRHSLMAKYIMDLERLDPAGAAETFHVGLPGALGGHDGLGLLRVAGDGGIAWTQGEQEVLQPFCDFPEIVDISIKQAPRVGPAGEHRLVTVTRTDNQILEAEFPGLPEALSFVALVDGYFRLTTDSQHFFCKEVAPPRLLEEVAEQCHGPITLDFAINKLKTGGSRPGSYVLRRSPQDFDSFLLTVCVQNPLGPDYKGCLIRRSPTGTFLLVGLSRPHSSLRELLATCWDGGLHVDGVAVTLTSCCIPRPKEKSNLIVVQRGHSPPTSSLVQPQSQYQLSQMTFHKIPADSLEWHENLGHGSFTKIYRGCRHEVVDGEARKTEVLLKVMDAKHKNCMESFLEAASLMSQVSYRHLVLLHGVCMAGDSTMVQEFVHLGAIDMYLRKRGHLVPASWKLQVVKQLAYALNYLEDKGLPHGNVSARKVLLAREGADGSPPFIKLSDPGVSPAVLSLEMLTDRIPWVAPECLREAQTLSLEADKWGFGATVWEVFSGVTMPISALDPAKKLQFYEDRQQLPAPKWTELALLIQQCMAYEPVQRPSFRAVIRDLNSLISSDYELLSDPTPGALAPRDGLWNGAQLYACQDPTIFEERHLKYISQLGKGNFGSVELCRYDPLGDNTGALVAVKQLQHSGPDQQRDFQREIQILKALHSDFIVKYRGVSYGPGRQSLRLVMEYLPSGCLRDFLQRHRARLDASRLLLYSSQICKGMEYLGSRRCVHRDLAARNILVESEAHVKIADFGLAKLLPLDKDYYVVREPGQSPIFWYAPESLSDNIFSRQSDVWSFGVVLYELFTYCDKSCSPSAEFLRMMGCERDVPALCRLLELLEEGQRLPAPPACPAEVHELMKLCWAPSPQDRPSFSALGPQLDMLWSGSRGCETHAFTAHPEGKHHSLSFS
Nature of the experiment: biochemical. On the set-up: Eurofins Cerep biochemical enzymatic kinase assay, per cent inhibition at a single concentration, duplicate. Particulars: read-out: % of inhibition ^a / JAK3.

The target in experiment [3] is T3, TYK2 (Homo sapiens, UniProt P29597). Nature of the experiment: biochemical. On the set-up: Eurofins Cerep biochemical enzymatic kinase assay, per cent inhibition at a single concentration, duplicate. The text has this:
(§1) Spiro diamines containing a deazapurine ring are known JAK inhibitors.[35]

For experiment [4], the target named is T4, JAK2 (Homo sapiens, UniProt O60674). Nature of the experiment: biochemical. On the set-up: Eurofins Cerep biochemical enzymatic kinase assay, per cent inhibition at a single concentration, duplicate.
T4 sequence (O60674 whole entry): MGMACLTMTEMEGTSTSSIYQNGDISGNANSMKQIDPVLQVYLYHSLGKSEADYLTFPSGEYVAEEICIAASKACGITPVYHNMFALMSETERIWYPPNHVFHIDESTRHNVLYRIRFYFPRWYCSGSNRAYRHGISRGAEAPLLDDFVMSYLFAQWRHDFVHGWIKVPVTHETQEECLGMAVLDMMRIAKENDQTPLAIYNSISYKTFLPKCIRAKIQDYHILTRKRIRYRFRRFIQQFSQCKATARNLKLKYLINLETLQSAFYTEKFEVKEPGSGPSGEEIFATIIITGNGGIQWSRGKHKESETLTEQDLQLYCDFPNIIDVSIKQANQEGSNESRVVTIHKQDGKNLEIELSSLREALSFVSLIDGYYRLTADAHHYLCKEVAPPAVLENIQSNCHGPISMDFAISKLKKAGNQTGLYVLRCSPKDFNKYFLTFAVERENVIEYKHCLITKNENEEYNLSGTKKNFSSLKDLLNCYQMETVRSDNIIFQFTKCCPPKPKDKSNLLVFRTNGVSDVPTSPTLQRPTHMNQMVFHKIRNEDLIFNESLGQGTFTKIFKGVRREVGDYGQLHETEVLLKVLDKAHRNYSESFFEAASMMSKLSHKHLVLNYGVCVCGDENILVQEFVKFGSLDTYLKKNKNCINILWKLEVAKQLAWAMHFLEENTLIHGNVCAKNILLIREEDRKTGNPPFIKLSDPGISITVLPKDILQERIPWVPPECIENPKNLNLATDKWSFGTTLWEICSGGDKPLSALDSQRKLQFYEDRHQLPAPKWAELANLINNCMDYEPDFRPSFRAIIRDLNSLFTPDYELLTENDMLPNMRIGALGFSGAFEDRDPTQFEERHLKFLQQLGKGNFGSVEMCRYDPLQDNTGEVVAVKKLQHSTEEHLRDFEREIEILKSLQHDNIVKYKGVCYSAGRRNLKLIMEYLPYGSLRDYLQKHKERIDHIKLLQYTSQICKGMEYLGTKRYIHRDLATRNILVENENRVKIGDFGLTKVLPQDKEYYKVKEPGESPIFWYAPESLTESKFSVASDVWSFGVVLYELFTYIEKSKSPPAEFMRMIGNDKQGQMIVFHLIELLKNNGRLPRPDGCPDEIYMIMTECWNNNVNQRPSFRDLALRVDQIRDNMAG
Text: as §1

The target in experiment [5] is T2, JAK3. Nature of the experiment: biochemical. More on the design: radiometric filter-binding kinase inhibition assay (Eurofins Cerep), scintillation counting. Here is the method: (§2) Given the structural similarities between the expanded ring analogues 16a and 16b and the previously described inhibitor KMC420, we initially evaluated their activity at 0.1 μM against JAK1, JAK2, JAK3, and TYK2, using biochemical enzymatic assays provided by Eurofins Cerep SA.

For experiment [6], the target named is T3, TYK2. Nature of the experiment: biochemical. More on the design: radiometric filter-binding kinase inhibition assay (Eurofins Cerep), scintillation counting. Here is the method: as §2
The target of experiment [7] is T1, JAK1. Nature of the experiment: biochemical. On the set-up: radiometric filter-binding kinase inhibition assay (Eurofins Cerep), scintillation counting. Here is the method:
as §2

Experiment [8] addresses T4, JAK2. Nature of the experiment: biochemical. On the set-up: radiometric filter-binding kinase inhibition assay (Eurofins Cerep), scintillation counting. Here is the method:
as §2

In experiment [9] the target is T1, JAK1. Nature of the experiment: biochemical enzymatic kinase assay, % inhibition at […]. The source holds these as a separate data set.
The target of experiment [10] is T2, JAK3. The description is as above.
The target of experiment [11] is T3, TYK2. Described as above.
The target in experiment [12] is T1, JAK1. Nature of the experiment: biochemical. More on the design: Eurofins Cerep biochemical enzymatic kinase assay, per cent inhibition at a single concentration, duplicate. How it is done:
Given the structural similarities between the expanded ring analogues 16a and 16b and the previously described inhibitor KMC420, we initially evaluated their activity at 0.1 μM against JAK1, JAK2, JAK3, and TYK2, using biochemical enzymatic assays provided by Eurofins Cerep SA. […] Spiro diamines containing a deazapurine ring are known JAK inhibitors.[35] […] However, this compound was not tested against the other JAK enzymes. Due to its similarity to our potent compound 40a, we decided to investigate its inhibitory activity against the four enzymes at a concentration of 0.1 μM. […] To investigate the binding differences between 40a and (R)-KMC420, we performed docking studies with DOCK6 using the JAK1 co-crystal structure with tofacitinib (PDB 3EYG) as receptor.

Experiment [13] addresses T1, JAK1. Nature of the experiment: biochemical enzymatic kinase assay (Eurofins Cerep), IC50 curve.

T3 sequence (P29597 whole entry): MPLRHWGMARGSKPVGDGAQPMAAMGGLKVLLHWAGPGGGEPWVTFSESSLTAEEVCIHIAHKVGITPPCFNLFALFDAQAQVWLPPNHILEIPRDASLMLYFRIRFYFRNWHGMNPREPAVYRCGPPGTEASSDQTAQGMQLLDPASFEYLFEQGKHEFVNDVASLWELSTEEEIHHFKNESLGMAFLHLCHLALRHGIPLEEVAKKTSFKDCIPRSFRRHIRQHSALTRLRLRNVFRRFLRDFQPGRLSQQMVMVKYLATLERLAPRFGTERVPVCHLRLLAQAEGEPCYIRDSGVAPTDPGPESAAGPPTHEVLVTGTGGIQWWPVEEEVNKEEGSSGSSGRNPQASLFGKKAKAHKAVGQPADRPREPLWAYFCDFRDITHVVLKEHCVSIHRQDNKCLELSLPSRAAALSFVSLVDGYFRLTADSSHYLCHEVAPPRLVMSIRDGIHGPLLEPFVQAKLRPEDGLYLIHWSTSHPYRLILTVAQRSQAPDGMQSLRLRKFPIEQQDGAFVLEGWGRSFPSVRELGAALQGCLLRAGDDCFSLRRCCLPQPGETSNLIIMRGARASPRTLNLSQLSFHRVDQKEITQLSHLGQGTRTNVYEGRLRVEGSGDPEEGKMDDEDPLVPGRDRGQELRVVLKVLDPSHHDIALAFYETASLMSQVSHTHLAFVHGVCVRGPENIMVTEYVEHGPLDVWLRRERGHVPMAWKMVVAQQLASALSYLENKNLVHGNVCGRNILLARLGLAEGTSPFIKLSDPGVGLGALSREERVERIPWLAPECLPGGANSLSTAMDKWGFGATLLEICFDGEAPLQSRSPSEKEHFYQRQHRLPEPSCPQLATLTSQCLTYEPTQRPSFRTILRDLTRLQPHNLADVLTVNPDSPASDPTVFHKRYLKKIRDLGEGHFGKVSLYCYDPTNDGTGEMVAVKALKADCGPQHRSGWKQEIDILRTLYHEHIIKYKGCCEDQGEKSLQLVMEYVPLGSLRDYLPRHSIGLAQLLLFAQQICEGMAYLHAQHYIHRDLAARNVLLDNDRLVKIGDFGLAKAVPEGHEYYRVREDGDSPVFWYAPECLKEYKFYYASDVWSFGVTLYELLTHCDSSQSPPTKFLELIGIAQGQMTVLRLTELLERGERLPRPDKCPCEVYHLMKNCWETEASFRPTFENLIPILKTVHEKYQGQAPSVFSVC
T1 sequence (P23458 whole entry): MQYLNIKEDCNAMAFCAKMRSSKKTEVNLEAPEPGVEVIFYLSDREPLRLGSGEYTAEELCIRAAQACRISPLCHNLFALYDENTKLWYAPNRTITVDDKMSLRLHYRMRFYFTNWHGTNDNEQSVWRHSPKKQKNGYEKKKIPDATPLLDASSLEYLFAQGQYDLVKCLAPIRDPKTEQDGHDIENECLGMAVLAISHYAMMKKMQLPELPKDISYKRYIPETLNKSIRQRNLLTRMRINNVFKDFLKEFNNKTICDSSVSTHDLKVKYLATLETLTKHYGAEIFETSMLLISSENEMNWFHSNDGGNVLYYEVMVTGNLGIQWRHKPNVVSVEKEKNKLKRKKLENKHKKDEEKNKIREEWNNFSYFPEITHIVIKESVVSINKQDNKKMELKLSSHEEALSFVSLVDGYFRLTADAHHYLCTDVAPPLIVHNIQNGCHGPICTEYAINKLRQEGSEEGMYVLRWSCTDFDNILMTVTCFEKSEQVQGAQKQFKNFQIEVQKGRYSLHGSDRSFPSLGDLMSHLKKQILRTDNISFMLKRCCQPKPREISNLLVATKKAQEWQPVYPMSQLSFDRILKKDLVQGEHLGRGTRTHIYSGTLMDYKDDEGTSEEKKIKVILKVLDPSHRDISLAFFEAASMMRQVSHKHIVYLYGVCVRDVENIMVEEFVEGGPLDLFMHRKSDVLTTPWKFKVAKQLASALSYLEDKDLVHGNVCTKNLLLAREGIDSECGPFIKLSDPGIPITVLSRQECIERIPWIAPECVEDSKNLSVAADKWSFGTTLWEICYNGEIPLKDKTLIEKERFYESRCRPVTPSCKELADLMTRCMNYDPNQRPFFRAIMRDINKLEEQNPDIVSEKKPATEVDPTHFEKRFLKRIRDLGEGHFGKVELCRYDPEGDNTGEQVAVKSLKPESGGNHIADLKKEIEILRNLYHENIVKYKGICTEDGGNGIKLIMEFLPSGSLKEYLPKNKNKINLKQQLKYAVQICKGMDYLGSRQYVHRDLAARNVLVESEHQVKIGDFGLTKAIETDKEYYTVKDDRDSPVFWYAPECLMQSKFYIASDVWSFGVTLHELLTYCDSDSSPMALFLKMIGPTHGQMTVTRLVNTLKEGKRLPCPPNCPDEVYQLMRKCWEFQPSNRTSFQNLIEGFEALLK

For the compound `C[C@]12CCN(c3ncnc4[nH]ccc34)[C@H]1CC[C@H]2NC#N` (racemic) [34c], the inhibition at 1 µM against JAK1 [1] is 89 ± 2%; on JAK3 [2], 43 ± 3%; on TYK2 [3], 53 ± 5%; at JAK2 [4], 45 ± 8%.

With `CCS(=O)(=O)N[C@@H]1CC[C@@H]2N(c3ncnc4[nH]ccc34)CC[C@@]21C` (racemic) [34d], the inhibition at 1 µM against JAK1 [1] turned out to be 88 ± 1%; at JAK3 [2], 45 ± 6%; at TYK2 [3], 56 ± 1%; against JAK2 [4] it was 61 ± 1%.

For `C=CC(=O)N[C@H]1CC[C@@H]2N(c3ncnc4[nH]ccc34)CC[C@]12C` (racemic) [40b], the inhibition at 1 µM was 55% on JAK3 [5], 70% at TYK2 [6], 93% on JAK1 [7] and 52% at JAK2 [8]. Moreover, the inhibition at 10 µM on JAK3 [5] was 99%; on TYK2 [6], 100%; on JAK1 [7], 100%; on JAK2 [8] it was 96%. The inhibition at 0.1 µM against JAK1 [9] was determined as 59 ± 2%; at JAK3 [2], 4 ± 1%; against TYK2 [3], 16 ± 2%; against JAK2 [4], 8 ± 1%.

As for `C[C@]12CCN(c3ncnc4[nH]ccc34)[C@H]1CC[C@@H]2NC#N` (racemic) [40c], the inhibition at 1 µM at JAK3 [5] is 96%; on TYK2 [6], 92%; at JAK1 [7], 95%; on JAK2 [8], 58%. Moreover, the inhibition at 10 µM at JAK3 [5] turned out to be 79%; at TYK2 [6], 91%; at JAK1 [7], 100%; at JAK2 [8] it was 85%. The inhibition at 0.1 µM is 70 ± 2% against JAK1 [9], 58 ± 1% against JAK3 [10], 61% against TYK2 [11] and 18 ± 6% at JAK2 [4].

With `N#CN1CCC2(CCN(c3ncnc4[nH]ccc34)C2)C1` (racemic) [43c], the inhibition at 1 µM on JAK1 [1] came to 93 ± 1%; on JAK3 [2], 26 ± 1%; against TYK2 [3] it was 63 ± 2%; at JAK2 [4] it was 59 ± 4%.

With `CC12CCN(c3ncnc4[nH]ccc34)C1CCC2NC(=O)CC#N` (stereo not shown) [34a], the inhibition at 1 µM is 43 ± 5% at JAK3 [2], 41 ± 6% at TYK2 [3], 41 ± 5% on JAK2 [4] and 85 ± 1% at JAK1 [12].

For `C=CC(=O)NC1CCC2N(c3ncnc4[nH]ccc34)CCC12C` (stereo not shown) [34b], the inhibition at 1 µM at JAK3 [2] came to 38 ± 1%; on TYK2 [3], 23 ± 5%; on JAK2 [4], 27 ± 3%; on JAK1 [12], 73 ± 1%.

As to `CC12CCN(C(=O)CC#N)C1CCC2Nc1ncnc2[nH]ccc12` (stereo not shown) [36a], the inhibition at 10 µM against TYK2 [3] was found to be 75 ± 2%; on JAK2 [4], 60%; against JAK1 [12], 94%.

Turning to `C=CC(=O)N1CCC2(C)C(Nc3ncnc4[nH]ccc34)CCC12` (stereo not shown) [36b], the inhibition at 10 µM stood at 63 ± 1% at JAK3 [2], 52% on TYK2 [3], 47 ± 2% against JAK2 [4] and 84 ± 2% against JAK1 [12].

With `CC12CCN(C#N)C1CCC2Nc1ncnc2[nH]ccc12` (stereo not shown) [36c], the inhibition at 10 µM against TYK2 [3] was 74 ± 3%; against JAK2 [4] it was 80 ± 3%; against JAK1 [12], 92%.

For the compound `CCS(=O)(=O)N1CCC2(C)C(Nc3ncnc4[nH]ccc34)CCC12` (stereo not shown) [36d], the inhibition at 1 µM came out at 44% at JAK3 [5], 53% on TYK2 [6], 45% at JAK1 [7] and 11% at JAK2 [8]. Also, the inhibition at 10 µM on JAK3 [5] was 96%; at TYK2 [6], 97%; at JAK1 [7], 99%; on JAK2 [8], 98%; at JAK3 [2] it was 42 ± 3%; at TYK2 [3], 67 ± 1%. The values for the inhibition at 10 µM at JAK2 [4] and on JAK1 [12] were 51 ± 3% and 86 ± 1%, respectively.

`CC12CCN(c3ncnc4[nH]ccc34)C1CCC2NC(=O)CC#N` (stereo not shown) [40a]: the inhibition at 1 µM on JAK3 [5] amounted to 79%; on TYK2 [6], 82%; at JAK1 [7] it was 99%; at JAK2 [8] it was 72%. Further, the inhibition at 10 µM at JAK3 [5] worked out at 89%; at TYK2 [6], 95%; on JAK1 [7], 99%; at JAK2 [8], 91%. For the same compound, the inhibition at 0.1 µM on JAK3 [2] came out at 27 ± 1%; against TYK2 [3], 29 ± 3%; on JAK2 [4], 3 ± 1%; at JAK1 [12] it was 80 ± 3%.

For `CCS(=O)(=O)NC1CCC2N(c3ncnc4[nH]ccc34)CCC12C` (stereo not shown) [40d], the figures for the inhibition at 1 µM at JAK3 [5], at JAK1 [7] and at JAK2 [8] were 11%, 76% and 38%, respectively. In addition, the inhibition at 0.1 µM is -10 ± 11% at JAK3 [2], 11 ± 12% on TYK2 [3], 1 ± 8% against JAK2 [4] and 28 ± 6% on JAK1 [12].

As for `CCS(=O)(=O)N1CCC2(CCN(c3ncnc4[nH]ccc34)C2)C1` (stereo not shown) [43d], the inhibition at 1 µM was 22 ± 1% at JAK3 [2], 34 ± 8% against TYK2 [3], 54 ± 6% on JAK2 [4] and 87 ± 1% at JAK1 [12].

As for `C[C@]12CCN(c3ncnc4[nH]ccc34)[C@H]1CC[C@@H]2NC(=O)CC#N` [(R,S,S)-40a], it took 69 nM to reach half-maximal inhibition against JAK1 [13] (IC50).

At JAK1 [13], `C[C@@]12CCN(c3ncnc4[nH]ccc34)[C@@H]1CC[C@H]2NC(=O)CC#N` [(S,R,R)-40a] had a half-inhibitory concentration (IC50) of 18 nM.
